Test results taken from patent US9980976B2, “Use of REDD1 inhibitors to dissociate therapeutic and adverse atrophogenic effects of glucocorticoid receptor agonists” (Northwestern University, priority 2015, dated 2018).

Columns and labels:
mTOR = mTOR activity in mouse skin (phosphorylation of 4E-BP1 and rpS6, phospho-mTOR Ser2448); assay type: in vivo; details: B6D2 mice, topical FA
Excerpt: Because REDD1 is a known inhibitor of mTOR signaling (Sofer et al, 2005; Wang et al, 2006; DeYoung et al, 2008; Shimizu et al, 2011), we tested whether FA inhibits mTOR activity in the skin. In previous studies, mTOR activity has been monitored by phosphorylation of its major substrates, 4E-BP1 (eukaryotic initiation factor 4E binding protein 1) and S6K1 (ribosomal p70/S6 kinase 1) as well as ribosomal protein S6 (rpS6), a substrate of S6K1 (Checkley et al, 2011). As basal level of S6K1 phosphorylation was low in skin of B6D2 mice, we used 4E-BP1 and rpS6 as preferred markers. […] Moreover, there was an inverse correlation between phosphorylation of mTOR targets and REDD1 expression in the epidermis. By the time when REDD1 expression reached its peak (8 h after 1st and 2nd FA applications), the repression of mTOR activity by FA was most pronounced (FIGS. 2A, B). We further confirmed this inverse correlation using immunostaining for REDD1 and active, phosphorylated at Ser2448 mTOR (FIG. 2A). […]

LC3 = assay: Autophagy in mouse epidermis (LC3-I to LC3-II conversion, Beclin-1); assay type: in vivo; details: FA-treated mouse skin
Description: In accordance, we observed in FA-treated skin the conversion of light chain 3 (LC3) from its free form (LC3-I) to a membrane-bound state (LC3-II), a key step that initiates autophagy in mammalian cells (Klionsky et al, 2012). LC3-I to LC3-II conversion reached its maximum 8 h after FA treatment and paralleled with the increase of another autophagy marker Beclin-1, highest REDD1 expression and strongest repression of mTOR activity (FIGS. 2C, D).
The whole-cell protein extracts were prepared using RIPA buffer with protease and phosphatase inhibitor cocktails (Thermo Scientific, Thermo Fisher Scientific Inc., Waltham, Mass., USA), resolved by SDS-PAGE on 4-20% gels and transferred to Odyssey nitrocellulose membranes (LI-COR Biosciences, Lincoln, Neb., USA). Membranes were blocked with Odyssey Blocking Buffer and incubated with primary antibodies overnight at 4° C., followed by IRDye® secondary antibodies (LI-COR Biosciences). LI-COR Odyssey Imager was used for the band visualization. Equal loading and adequate transfer to the membranes were verified by staining with Ponceau S (Sigma-Aldrich) and with anti-GAPDH (Sigma-Aldrich) antibody. We used Abs against: REDD1 (Proteintech Group, Inc., Chicago, Ill.), LC3B, phospho-rpS6Ser240/244, phospho-4E-BP1Thr37/46, phospho-GRSer211 (Cell Signaling Technology, Inc.), and GR (H-300 or M-20, Santa Cruz Biotechnology, Inc.).

[1] = tested on: glucocorticoid-responsive genes in murine epidermis; assay: Genome-wide expression profiling of murine epidermis (microarray, Q-PCR validation); assay type: in vivo, mouse; details: FA
Description: To investigate the global role of REDD1 in GR signaling, we performed genome-wide expression profiling of the epidermis of REDD1 and wild-type mice treated with vehicle (control) or FA using Illumina mouse whole-genome gene array (GEO Submission GSE59151). Gene expression was measured 24 h post-FA application, when both TA and TR are usually fully developed (Wu et al, 2004). Differential expression was identified based on the adjusted P-value threshold of 0.05.
RNA samples were checked for quality and integrity with the Agilent 2100 bioanalyzer and used for microarray analysis. RNA amplification, labeling, and hybridization with the Mouse Whole-Genome Gene Expression BeadChips MouseRef-8 v2.0 (Illumina) were performed at the Genomics Core Facility at the Center for Genetic Medicine at Northwestern University according to Illumina protocols.
Microarray processing was performed using the Limma package (Smyth, 2005), using the neqc function to perform background subtraction using the negative control probes, and quantile normalization using both positive and negative control probes. Differentially expressed probes were identified using the linear model implemented in Limma, applying an adjusted P-value threshold of 0.05. Q-PCR and microarray based gene expression values were compared using linear Pearson correlation.
Gene ontology analysis was performed using the DAVID Bioinformatics resource tool (Huang et al, 2009a,b), submitting differentially expressed probes from each experiment, against the probe background of MouseRef 8. DAVID performs a hypergeometric test to identify overrepresented GO terms in a list of differentially expressed probes. Results are presented for categories with greater than or equal to threefold enrichment and P=0.01.

pri-miR-221 = assay: Q-PCR analysis of primary miR-221 in mouse epidermis; assay type: in vivo; details: 24 h after single FA application and after the first week of chronic treatment
Description: FIG. 9. Inverse correlation between pri-miR-221 and REDD1 expression during glucocorticoid treatment. B6D2 mice were treated with FA topically as described in Materials and Methods, epidermis was harvested at indicated time points. A. Western blot analysis. B. Q-PCR analysis of primary miR-221. Data are expressed as the fold change (mean±SD) with respect to the controls (unpaired two-tailed t-test, n=3).
Total RNA from murine epidermis, whole human skin, and cell cultures was isolated with RiboPure kit (Ambion, Life Technologies, Grand Island, N.Y., USA). Total RNA from murine s.c. adipose was isolated with RNeasy Lipid Tissue Kit (Qiagen, Valencia, Calif., USA). The RNA samples were treated with TURBOT™ DNase (Ambion). The gene expression was assessed using semi-quantitative two-step RT-PCR and quantitative Q-PCR. Reverse transcription was performed using 1 μg RNA, random hexamers, and M-MLV reverse transcriptase (Invitrogen, Life Technologies), according to manufacturer instructions. The gene-specific primers were designed with NCBI Primer-BLAST (data not shown, see Baida et al., EMBO, 2015, at Supplementary Table S4). […] For semi-quantitative PCRs, Taq DNA polymerase (Promega) was used, and PCR products were separated on 1.5% agarose gel and visualized using automated imaging system (Bio-Rad, Hercules, Calif., USA). […]

SMILES: CC1(C)O[C@@H]2C[C@H]3[C@@H]4C[C@H](F)C5=CC(=O)C=C[C@]5(C)[C@@]4(F)[C@@H](O)C[C@]3(C)[C@]2(C(=O)CO)O1 [FA, fluocinolone acetonide]
- mTOR activity in the skin (mTOR): blocked mTOR activity
- time of maximum LC3-I to LC3-II conversion after treatment (LC3): 8 h
- gene categories up-regulated (GO analysis) ([1]; REDD1 KO keratinocytes): up-regulated genes related to autophagy, endosomes, and PI3K signaling
- Cd74 and H2-Ab1 expression (Q-PCR array validation) ([1]; wild-type and REDD1 KO epidermis): similarly down-regulated
- gene categories inhibited (GO analysis) ([1]; wild-type but not REDD1 KO skin): inhibited genes related to DNA replication
- pri-miR-221 level (pri-miR-221): significantly increased
